# How the values were obtained:
# [1] = test system: animal pole explants of Xenopus embryos; test: Neural induction assay by Noggin in animal pole explants (RT-PCR); design: species or system Xenopus laevis; conditions: co-injected with Tmem79MO
# Protocol: (§1) mRNA and Morpholino injection. For animal cap assays, indicated mRNAs (Tmem79, 100 and 200 pg; Xwnt8, 10 pg; β-catenin 50 pg; Xnr1, 250 pg; BMP4, 100 pg) were injected into the animal pole at 4-cell stage, and animal caps were dissected at stage 9 (in the case of Xwnt8, Xnr1, BMP4) or at stage 8.5 and treated with recombinant proteins (bFGF, 100 ng/ml; hShh, 1.5 ng/mL) until stage 10 before RT-PCR. For Neural induction assay the MO (20 ng) for Tmem79, Usp8 or β-catenin was injected into the animal pole at 4-cell stage, and animal caps were dissected at stage 9 and treated with recombinant protein Noggin (500 ng/mL) until stage 18 before RT-PCR. To examine Tmem79 and Usp8 MOs specificity, […] of mRNA of Xenopus Tmem79, mouse Tmem79, Xenopus Usp8 or xmutUsp8 (Xenopus Usp8 mutated for mismatches with the MO) were injected with a control MO, Tmem79 MO or Usp8 MO (20 ng) into the animal pole at the 2-cell stage and cultured til stage 10 for Western blotting. To knockdown the endogenous xTmem79 or xUsp8, 20 ng of control MO, Tmem79 MO or Usp8 MO were injected into two dorso-animal blastomeres at the 8-cell stage and the phenotype was scored at stage 35. To rescue the Tmem79 MO phenotype, […] of mTmem 79, 20 ng of Usp8 MO or 10 ng of β-catenin MO was injected together with Tmem79 MO (20 ng). RT-PCR primers and Morpholinos. […]
# Xenopus embryos = test: MO specificity, Western blotting of protein synthesis from co-injected mRNA; type: in vivo, Xenopus laevis; conditions: stage 10
# Protocol: as §1
substance,measurement,setting,value
"Usp8 MO: morpholino against Xenopus Usp8, SEQ ID NO: 26 (antisense GCTGCAAATTCTCCTCTCTTATCAA; all phosphorodiamidate morpholino (PMO); listed as Xenopus laevis)",neural induction by Noggin abolished by Tmem79MO: effect of co-injection,[1],rescued
same,protein synthesis from the Xenopus Usp8 (xUsp8) mRNA,Xenopus embryos,inhibited
